Assays:
MDA-MB-231 cells = assay: Cell growth inhibition (resazurin blue), MDA-MB-231; type: cell-based, human; conditions: 72 hours
Description: (§1) Cell growth inhibition was determined in 96-well plates (3,000 cells/well in 100 μL, 12 replicates/sample) using highly invasive human breast cancer cells, MDA-MB-231, non-metastatic human breast cancer cells, MDA-MB-468, and highly invasive human head and neck squamous cell cancer cells positive for epithelia growth factor receptor, MDA-1986. Drug or conjugate solutions were applied after 24 hours, and 72 hours post-addition, resazurin blue in 10 μL of PBS was applied to each well (final concentration 5 μM).

MCF-7 cells [1] = assay: Cell growth inhibition (resazurin blue), MCF-7; type: cell-based, human; conditions: 72 hours after drug addition
Description: Plates were seeded with 3,000 cells/well in 100 μL of media (12 replicates/sample). Drug or conjugate solutions were applied after 24 hours. […] The in vitro anti-proliferative activities of cisplatin, NO-donating prodrug, and their star polymer-based conjugates, including acid-Pt, acid-NO, and combinational acid-Pt/acid-NO were evaluated in cell culture using a human breast cancer cell line, MCF-7. […] The acid-Pt appeared to be less cytotoxic than cisplatin in the cells. This is likely due to the slow release of the active drug, which was not unexpected for a sustained-delivery platform. One of the obstacles that has not yet been overcome in infusion chemotherapy is the poor tumor penetration and accumulation of small-molecule anti-cancer agents. Usually the majority of the chemotherapeutics have been cleared from systemic circulation, via the kidneys, before a significant concentration of the anti-cancer agent is achieved in the tumorigenic tissues. However, the acid-Pt and acid-NO nanoconjugates may greatly enhance the intratumoral drug concentration compared to the normal tissues due to the Enhanced Permeability and Retention effect (EPR), in which nanoformulations tend to penetrate tumors more effectively via leaky, fenestrated tumor blood vessels. […]

MDA-MB-468 cells = assay: Cell growth inhibition (resazurin blue), MDA-MB-468; type: cell-based, human; conditions: 72 hours
Description: as §1

MDA-1986 cells [2] = assay: Cell growth inhibition (resazurin blue), MDA-1986; type: cell-based, human; conditions: 72 hours
Description: as §1

MDA-1986 cells [3] = assay: Nitric oxide release (Griess) in cell culture with MDA-1986 cells; type: cell-based, human
Description: The fluorescence intensity was measured between 520 and 550 nm using a fluorescence microplate reader.
The concentration of nitrite, the stable breakdown product of gaseous nitric oxide, was measured using Griess assay as an indirect measurement of nitric oxide concentration in cell culture media. The assay is based on the reaction between sulfanilamide, N-1-napthyethylenediamine dihydrochloride and nitrite, under acidic conditions to produce a […] azo compound.

MCF-7 cells [4] = tested on: MCF-7 cells

IC50 (MDA-MB-231 cells): 32 ± 3 µM
IC50 (MCF-7 cells [1]): 48 ± 28 µM
IC50 (MDA-MB-468 cells): 26 ± 4 µM
Release half-life (MDA-1986 cells [3]): 7.1 h
Release half-life (MCF-7 cells [4]): 7.4 h
SMILES: O=[N+]([O-])c1ccc(ON=[N+]([O-])N2CCN(CCOCCO)CC2)c([N+](=O)[O-])c1 [NO1, O^2-(2,4-Dinitrophenyl) 1-{[4-(2-(2-hydroxyethoxy))ethyl]piperazin-1-yl}diazen-1-ium-1,2-diolate]
IC50 (MDA-1986 cells [2]): 33 ± 1 µM

Source: patent publication US8802235B2, “Drug and imaging agent delivery compositions and methods” (priority 2012, dated 2014)
